Data: US8280710B2, “Method for determining thermal stability of collagen or collagen-like peptide” (University of Medicine and Dentistry of New Jersey, priority 2005, dated 2012)
Non-standard residues stand in square brackets, D forms with d. Residues, ends and D or L forms follow the SMILES beside them. Hyp = O=C(O)[C@@H]1C[C@@H](O)CN1

Key:
[1] = Method for predicting global Tm of collagen peptides from amino acid sequence; conditions: observed minus predicted, peptides of Table 3
Protocol: The global thermal stability of homotrimeric triple helical peptides with length of at least 6 tripeptide units and, in most cases, containing 10 tripeptide units was determined as follows.
For the total number of triplets n in a given peptide, the base Tm^0(n) for (Pro-Hyp-Gly) or (Pro-Pro-Gly)n was calculated from the length dependence (Equation 1), including any effect of blocking groups;
The melting temperature value was decreased for every triplet in the sequence that was not Gly-Pro-Hyp, subtracting a value of ΔTm^GXY (Table 1). The N-terminal and C-terminal tripeptide units were excluded from the calculation due to the staggering of the chains and the disorder for the peptide ends (Bella et al. (1994) supra; Li, et al. (1993) Biochemistry 32:7377-7387; Kramer, et al. (2001) J. Mol. Biol. 301:1191-1205).
The resulting value for the peptide melting temperature was adjusted using the ΔTm^int values for interactions between neighboring tripeptides (Table 2).
The method was formulated as follows.
To extrapolate the dependence of the Tm of the host peptides on peptide length, the experimental values for (Pro-Hyp-Gly)n and (Pro-Pro-Gly)n versus n, where n is the number of tripeptide units, were fit to the exponential decay function
[formula] where Tm^0(n) is defined as the base thermal stability of the repeating polytripeptide standard, Tm^max is the maximum melting temperature, and the constant n0 represents the length of the repeating peptide with Tm=0.

[2] = peptide of Table 3, defined standard conditions
Protocol: The propensity measurements for all 20 amino acid residues in the Xaa1 position in a Gly-Xaa1-Hyp context and all 20 amino acid residues in the Xaa2 position in a Gly-Pro-Xaa2 context were determined by measuring thermal stability of host-guest peptides (Persikov, et al. (2000) supra).
The Tm values of all host-guest peptides were measured under a set of standard conditions, with c=1 mg/ml in phosphate-buffered saline, pH 7.0, and with a heating rate average of 0.1° C./minute (Persikov, et al. (2004) supra).

ΔTm [1] | Tm^obs [2] | Molecule
0.1 °C | 42.8 °C | CC(=O)NCC(=O)N1CCC[C@H]1C(=O)N1C[C@H](O)C[C@H]1C(=O)NCC(=O)N1CCC[C@H]1C(=O)N1C[C@H](O)C[C@H]1C(=O)NCC(=O)N1CCC[C@H]1C(=O)N1C[C@H](O)C[C@H]1C(=O)NCC(=O)N[C@@H](C)C(=O)N[C@@H](CCCCN)C(=O)NCC(=O)N[C@@H](CC(=O)O)C(=O)N[C@@H](C)C(=O)NCC(=O)N1CCC[C@H]1C(=O)N1C[C@H](O)C[C@H]1C(=O)NCC(=O)N1CCC[C@H]1C(=O)N[C@@H](C)C(=O)NCC(=O)N1CCC[C@H]1C(=O)N1C[C@H](O)C[C@H]1C(=O)NCC(=O)N1CCC[C@H]1C(=O)N1C[C@H](O)C[C@H]1C(=O)NCC(=O)N1CCC[C@H]1C(=O)N1C[C@H](O)C[C@H]1C(=O)NCC(=O)N[C@@H](Cc1ccc(O)cc1)C(N)=O [T1-655, Ac-(GPO)3-GAK-GDA-GPO-GPA-(GPO)3-GY-NH2] (Ac-GP[Hyp]GP[Hyp]GP[Hyp]GAKGDAGP[Hyp]GPAGP[Hyp]GP[Hyp]GP[Hyp]GY-NH2)
−2.2 °C | 26.0 °C | CC(=O)NCC(=O)N1CCC[C@H]1C(=O)N[C@@H](C)C(=O)NCC(=O)N1CCC[C@H]1C(=O)N[C@@H](C)C(=O)NCC(=O)N1CCC[C@H]1C(=O)N[C@H](C(=O)NCC(=O)N1CCC[C@H]1C(=O)N[C@@H](C)C(=O)NCC(=O)N[C@@H](C)C(=O)N[C@@H](CCCNC(=N)N)C(=O)NCC(=O)N1CCC[C@H]1C(=O)N[C@@H](C)C(=O)NCC(=O)N1CCC[C@H]1C(=O)N1C[C@H](O)C[C@H]1C(=O)NCC(=O)N1CCC[C@H]1C(=O)N1C[C@H](O)C[C@H]1C(=O)NCC(=O)N1CCC[C@H]1C(=O)N1C[C@H](O)C[C@H]1C(=O)NCC(=O)N1CCC[C@H]1C(=O)N1C[C@H](O)C[C@H]1C(=O)NCC(=O)N[C@H](C(N)=O)C(C)C)C(C)C [T1-892, Ac-GPA-GPA-GPV-GPA-GAR-GPA-(GPO)4-GV-NH2] (Ac-GPAGPAGPVGPAGARGPAGP[Hyp]GP[Hyp]GP[Hyp]GP[Hyp]GV-NH2)
1.5 °C | 24.1 °C | CC(=O)NCC(=O)N1CCC[C@H]1C(=O)N[C@@H](C)C(=O)NCC(=O)N1CCC[C@H]1C(=O)N[C@@H](C)C(=O)NCC(=O)N1CCC[C@H]1C(=O)N[C@H](C(=O)NCC(=O)N1CCC[C@H]1C(=O)N[C@@H](C)C(=O)NCC(=O)N[C@@H](C)C(=O)N[C@@H](CCCNC(=N)N)C(=O)NCC(=O)N1CCC[C@H]1C(=O)N[C@@H](C)C(=O)NCC(=O)N1CCC[C@H]1C(=O)N1C[C@H](O)C[C@H]1C(=O)NCC(=O)N1CCC[C@H]1C(=O)N1C[C@H](O)C[C@H]1C(=O)NCC(=O)N[C@@H](C)C(=O)N1C[C@H](O)C[C@H]1C(=O)NCC(=O)N1CCC[C@H]1C(=O)N1C[C@H](O)C[C@H]1C(=O)NCC(=O)N[C@H](C(N)=O)C(C)C)C(C)C [T1-892 (P26A), Ac-(GPA)2-GPV-GPA-GAR-GPA-(GPO)2-GAO-GPO-GV-NH2] (Ac-GPAGPAGPVGPAGARGPAGP[Hyp]GP[Hyp]GA[Hyp]GP[Hyp]GV-NH2)
−7.4 °C | 23.3 °C | CC(=O)NCC(=O)N1CCC[C@H]1C(=O)N1C[C@H](O)C[C@H]1C(=O)NCC(=O)N[C@@H](CCCNC(=N)N)C(=O)N1C[C@H](O)C[C@H]1C(=O)NCC(=O)N[C@@H](CCCNC(=N)N)C(=O)N[C@@H](CCCNC(=N)N)C(=O)NCC(=O)N[C@@H](CCCNC(=N)N)C(=O)N1C[C@H](O)C[C@H]1C(=O)NCC(=O)N[C@@H](CC(C)C)C(=O)N[C@@H](CCCCN)C(=O)NCC(=O)N[C@@H](CCC(=O)O)C(=O)N[C@@H](CCC(N)=O)C(=O)NCC(=O)N1CCC[C@H]1C(=O)N1C[C@H](O)C[C@H]1C(=O)NCC(=O)N1CCC[C@H]1C(=O)N1C[C@H](O)C[C@H]1C(=O)NCC(=O)N1CCC[C@H]1C(=O)N1C[C@H](O)C[C@H]1C(=O)NCC(=O)N1CCC[C@H]1C(=O)N1C[C@H](O)C[C@H]1C(=O)NCC(=O)N[C@@H](Cc1ccc(O)cc1)C(N)=O [C1qA-15, Ac-GPO-GRO-GRR-GRO-GLK-GEQ-(GPO)4-GY-NH2] (Ac-GP[Hyp]GR[Hyp]GRRGR[Hyp]GLKGEQGP[Hyp]GP[Hyp]GP[Hyp]GP[Hyp]GY-NH2)
3.9 °C | 25.0 °C | CC(=O)NCC(=O)N[C@@H](CO)C(=O)N1C[C@H](O)C[C@H]1C(=O)NCC(=O)N[C@@H](C)C(=O)N[C@@H](CCC(N)=O)C(=O)NCC(=O)N[C@@H](CC(C)C)C(=O)N[C@@H](CCC(N)=O)C(=O)NCC(=O)N1CCC[C@H]1C(=O)N[C@@H](CCCNC(=N)N)C(=O)NCC(=O)N[C@@H](CC(C)C)C(=O)N1C[C@H](O)C[C@H]1C(=O)NCC(=O)N[C@H](C(=O)N1C[C@H](O)C[C@H]1C(=O)NCC(=O)N1CCC[C@H]1C(=O)N1C[C@H](O)C[C@H]1C(=O)NCC(=O)N1CCC[C@H]1C(=O)N1C[C@H](O)C[C@H]1C(=O)NCC(=O)N1CCC[C@H]1C(=O)N1C[C@H](O)C[C@H]1C(=O)NCC(=O)N1CCC[C@H]1C(=O)N1C[C@H](O)C[C@H]1C(=O)NCC(=O)N[C@H](C(=O)O)C(C)C)[C@@H](C)O [T2-508, Ac-GSO-GAQ-GLQ-GPR-GLO-GTO-(GPO)4-GV-OH] (Ac-GS[Hyp]GAQGLQGPRGL[Hyp]GT[Hyp]GP[Hyp]GP[Hyp]GP[Hyp]GP[Hyp]GV-OH)
−2.2 °C | 23.0 °C | CC[C@H](C)[C@H](NC(=O)CNC(C)=O)C(=O)N[C@@H](CC(N)=O)C(=O)NCC(=O)N[C@@H](Cc1ccccc1)C(=O)N1C[C@H](O)C[C@H]1C(=O)NCC(=O)N[C@@H](CCCCN)C(=O)N[C@@H](CC(=O)O)C(=O)NCC(=O)N[C@@H](CCCNC(=N)N)C(=O)N[C@@H](CC(=O)O)C(=O)NCC(=O)N[C@H](C(=O)N[C@@H](CCCCN)C(=O)NCC(=O)N[C@@H](CCC(=O)O)C(=O)N[C@@H](CCCCN)C(=O)NCC(=O)N[C@@H](CCC(=O)O)C(=O)N1C[C@H](O)C[C@H]1C(=O)NCC(=O)N1CCC[C@H]1C(=O)N1C[C@H](O)C[C@H]1C(=O)NCC(=O)N1CCC[C@H]1C(=O)N1C[C@H](O)C[C@H]1C(=O)NCC(=O)N1CCC[C@H]1C(=O)N1C[C@H](O)C[C@H]1C(=O)NCC(=O)N1CCC[C@H]1C(=O)N1C[C@H](O)C[C@H]1C(=O)NCC(=O)NCC(N)=O)[C@@H](C)O [MBL 42-61, Ac-GIN-GFO-GKD-GRD-GTK-GEK-GEO-(GPO)4-GG-NH2] (Ac-GINGF[Hyp]GKDGRDGTKGEKGE[Hyp]GP[Hyp]GP[Hyp]GP[Hyp]GP[Hyp]GG-NH2)

Molecule | ΔTm [1] | Tm^obs [2]
CC(=O)NCC(=O)N1CCC[C@H]1C(=O)N1C[C@H](O)C[C@H]1C(=O)NCC(=O)N1CCC[C@H]1C(=O)N1C[C@H](O)C[C@H]1C(=O)NCC(=O)N[C@@H](CCCNC(=N)N)C(=O)N1C[C@H](O)C[C@H]1C(=O)NCC(=O)N[C@@H](CCCCN)C(=O)N[C@@H](CCCNC(=N)N)C(=O)NCC(=O)N[C@@H](CCCCN)C(=O)N[C@@H](CCC(N)=O)C(=O)NCC(=O)N1CCC[C@H]1C(=O)N1C[C@H](O)C[C@H]1C(=O)NCC(=O)N1CCC[C@H]1C(=O)N1C[C@H](O)C[C@H]1C(=O)NCC(=O)N1CCC[C@H]1C(=O)N1C[C@H](O)C[C@H]1C(=O)NCC(=O)NCC(N)=O [AchE-HG-C3, Ac-GPO-GPO-GRO-GKR-GKQ-GPO-GPO-GPO-GG-NH2] (Ac-GP[Hyp]GP[Hyp]GR[Hyp]GKRGKQGP[Hyp]GP[Hyp]GP[Hyp]GG-NH2) | −2.7 °C | 21.3 °C
GPS-GPR-GLO-GPO-GAO-GPQ-GFQ-GPO-(GEO)2-GAS-GPM [α1CB2] | 3.4 °C | 12 °C
CC(=O)NCC(=O)N1CCC[C@H]1C(=O)N1C[C@H](O)C[C@H]1C(=O)NCC(=O)N1CCC[C@H]1C(=O)N1C[C@H](O)C[C@H]1C(=O)NCC(=O)N[C@@H](CCCNC(=N)N)C(=O)N1C[C@H](O)C[C@H]1C(=O)NCC(=O)N[C@@H](CCCNC(=N)N)C(=O)N[C@@H](CCCCN)C(=O)NCC(=O)N[C@@H](CCCNC(=N)N)C(=O)N1C[C@H](O)C[C@H]1C(=O)NCC(=O)N1CCC[C@H]1C(=O)N1C[C@H](O)C[C@H]1C(=O)NCC(=O)N1CCC[C@H]1C(=O)N1C[C@H](O)C[C@H]1C(=O)NCC(=O)N1CCC[C@H]1C(=O)N1C[C@H](O)C[C@H]1C(=O)NCC(=O)NCC(N)=O [AchE-HG-N2, Ac-GPO-GPO-GRO-GRK-GRO-GPO-GPO-GPO-GG-NH2] (Ac-GP[Hyp]GP[Hyp]GR[Hyp]GRKGR[Hyp]GP[Hyp]GP[Hyp]GP[Hyp]GG-NH2) | 1.3 °C | 17.4 °C
CC(=O)NCC(=O)N1CCC[C@H]1C(=O)N1C[C@H](O)C[C@H]1C(=O)NCC(=O)N1CCC[C@H]1C(=O)N1C[C@H](O)C[C@H]1C(=O)NCC(=O)N[C@@H](CCCNC(=N)N)C(=O)N1C[C@H](O)C[C@H]1C(=O)NCC(=O)N[C@@H](CCCCN)C(=O)N[C@@H](CCCNC(=N)N)C(=O)NCC(=O)N[C@@H](CCCCN)C(=O)N1C[C@H](O)C[C@H]1C(=O)NCC(=O)N1CCC[C@H]1C(=O)N1C[C@H](O)C[C@H]1C(=O)NCC(=O)N1CCC[C@H]1C(=O)N1C[C@H](O)C[C@H]1C(=O)NCC(=O)N1CCC[C@H]1C(=O)N1C[C@H](O)C[C@H]1C(=O)NCC(=O)NCC(N)=O [AchE-HG-C2, Ac-GPO-GPO-GRO-GKR-GKO-GPO-GPO-GPO-GG-NH2] (Ac-GP[Hyp]GP[Hyp]GR[Hyp]GKRGK[Hyp]GP[Hyp]GP[Hyp]GP[Hyp]GG-NH2) | 0.3 °C | 26.9 °C
